Results published in US20250164468A1, “Method for Cellular Lifespan Measurement” (AGENCY FOR SCIENCE, TECHNOLOGY AND RESEARCH, priority 2022, published 2025).

Legend:
Format in all cases: cell-based, Saccharomyces cerevisiae
[1] = system: prototrophic yeast strain (CEN.PK113-7D); test: Propidium iodide fluorescence-based chronological lifespan (CLS) method in yeast, incl. high-throughput screening; conditions: for Yeast CLS increase / PI intensity: 100 μM tested; for Yeast CLS increase: Yes/No call; for PI intensity: chronological age point day 7 (72 h growth = day 1), lower PI = more survival
Experimental: Chronological lifespan (CLS) experiments were conducted in 96-well plates with 200 μL yeast culture. The prototrophic wild-type yeast strain (CEN.PK113-7D) and snf1Δ deletion strains were grown in the SD medium in 96-well plates at 30° C. Saccharomyces cerevisiae BY4743 strain was grown in the SD medium supplemented with histidine (40 mg/L), leucine (160 mg/L), and uracil (40 mg/L) in 96-well plates at 30° C. For assays testing the effect of rapamycin, cellular inoculum was transferred into 96-well plates containing serially double-diluted concentrations (0 to 10 nM) of rapamycin. […] Likewise, cellular inoculum was transferred into the 96-well plates containing serially double-diluted concentrations (0-8 mM) of D-fructose, D-mannitol, D-maltose, and D-sorbitol. Cells were incubated at 30° C., and the growth was measured at different time points. […] Cell survival was quantified at various age time points by three different approaches: (i) propidium iodide fluorescence-based method, (ii) outgrowth in YPD liquid medium and (iii) spotting assay (FIG. 1).
40 μL yeast cells on different age time points were transferred into a 96-well plate different to the 96-well plate in which the CLS analysis was performed. Cells were washed and incubated in 100 μL 1×PBS with PI (5 μg/mL) for 15 minutes in the dark. Positive and negative sample control were included for quantitative analysis. Positive control (cells boiled at 100° C. for 15 min) was PI-stained and processed in the same 96-well plate. Samples without PI-stained cells served as the negative control. After incubation, cells were washed and resuspended in 100 μL PBS. The fluorescence reading of the samples (excitation at 535 nm, emission at 617 nm) and OD600 nm were measured by a microplate reader (BioTek, Winooski, Vermont, United States). The fluorescence intensity of each sample was normalized with OD600 nm. The normalized fluorescence intensity of each sample was subtracted from the background signal of the unstained negative sample. The obtained fluorescence intensity of the positive control sample (boiled dead cells) was considered 0% cell survival. […] Cell survival of different age time point samples were calculated by normalizing the fluorescence intensity with positive control sample (boiled cells).
The prototrophic yeast strain (CEN.PK113-7D) was grown in the synthetic defined medium with indicated concentrations of rapamycin in 96-well plates at 30° C. A total of 30 samples of individual rapamycin concentration was tested with DMSO control (0 nM rapamycin) for Z-factor analysis. […] The chronological lifespan of the aged cells was determined by the outgrowth method in YPD liquid medium. […] At chronological age point day 4, 3 μL culture were transferred to a second 96-well plate containing 200 μL YPD medium. […] The CLS of different concentrations of rapamycin incubated cells was determined using the propidium iodide fluorescence-based method (FIG. 2C). […] Z-factor of different concentrations of rapamycin was analyzed using the formula Z=1−[3×(standard deviation of control sample+standard deviation of rapamycin sample)/(mean of control sample−mean of rapamycin sample)].
High-throughput screening of various chemicals was tested using the same protocol for the propidium iodide fluorescence-based method as described above. The prototrophic yeast strain (CEN.PK113-7D) was grown in the synthetic defined medium with different chemical reagents with a single testing concentration (Table 1) in addition to eight replicates of DMSO and water controls in 96-well plates at 30° C.

[2] = system: prototrophic yeast strain (CEN.PK113-7D); test: Yeast outgrowth in YPD liquid medium (CLS of aged cells); conditions: 100 μM tested; outgrowth OD600 nm in YPD after 24 h, age point day 14
Experimental: This quantification was performed by using the formula,
The CLS of the aged cells was further determined by the yeast outgrowth in YPD liquid medium method as described above. […] At chronological age point day 14, 3-μL of culture were transferred to a second 96-well plate containing 200 μL YPD medium.

[3] = system: prototrophic yeast strain (CEN.PK113-7D); test: Yeast cell growth (OD600 nm) with rapamycin in SD medium
Experimental: Chronological lifespan (CLS) experiments were conducted in 96-well plates with 200 μL yeast culture. The prototrophic wild-type yeast strain (CEN.PK113-7D) and snf1Δ deletion strains were grown in the SD medium in 96-well plates at 30° C. Saccharomyces cerevisiae BY4743 strain was grown in the SD medium supplemented with histidine (40 mg/L), leucine (160 mg/L), and uracil (40 mg/L) in 96-well plates at 30° C. For assays testing the effect of rapamycin, cellular inoculum was transferred into 96-well plates containing serially double-diluted concentrations (0 to 10 nM) of rapamycin. For calorie restriction assay, cellular inoculums were prepared in SD medium containing 2% w/v, 0.5% w/v, and 0.25% w/v glucose and transferred to 96-well plates. […] Cells were incubated at 30° C., and the growth was measured at different time points. […] Cell survival was quantified at various age time points by three different approaches: (i) propidium iodide fluorescence-based method, (ii) outgrowth in YPD liquid medium and (iii) spotting assay (FIG. 1).
The effect of rapamycin on the CLS of a yeast strain was studied to examine the validity of the inventive protocol. […] Cells were aged with different concentrations of rapamycin in the SD medium and their respective growth at different time points (24 hours, 48 hours and 72 hours) were measured. […]

O=C(Oc1nc2[nH]c(=O)[nH]c(=O)c2[nH]1)c1cccnc1 [Xanthinol Nicotinate]
Yeast CLS increase [1]: No

O=C(O)[C@@H]1CCCN1 [I-pyrrolidine-2-carboxylic acid]
Outgrowth [2]: 0.1 | Yeast CLS increase [1]: No | PI intensity [1]: 80,551.7

CO[C@H]1C[C@@H]2CC[C@@H](C)[C@@](O)(O2)C(=O)C(=O)N2CCCC[C@H]2C(=O)O[C@H]([C@H](C)C[C@@H]2CC[C@@H](O)[C@H](OC)C2)CC(=O)[C@H](C)/C=C(\C)[C@@H](O)[C@@H](OC)C(=O)[C@H](C)C[C@H](C)/C=C/C=C/C=C/1C [Rapamycin]
time to cell growth saturation ([3]; 5 nM or less rapamycin): approximately 24 hours | time to cell growth saturation ([3]; 10 nM rapamycin (slowed cell growth)): 48 h | survival of aged cells ([1]; 5 nM and 10 nM, day 4 (without rapamycin approx. 50%)): approximately 75% | survival of aged cells ([1]; day 7 (without rapamycin less than 20%)): approximately 70%

Aliskiren (hemiumarate)
PI intensity [1]: 73,607.3

OC[C@H]1O[C@H](CO)[C@@H](O)[C@@H]1O [2,5-anhydromannitol, 2,5-anhydro-D-mannitol]
extension of CLS of yeasts ([1]; screen, PI method): extend the CLS of yeasts
